Several values for one entry are separate records, joined by “and”; a condition that tells them apart may be missing. Equal entries are not always repeated.
Columns and labels:
[1] = target: LC3C (Homo sapiens, UniProt Q9BXW4); experiment: FP assay with Cy5-labelled p62 LIR tracer (protein titration and tracer displacement); type: binding; settings: for normalized FP signal, p62 LIR tracer displacement: LC3C, listed as AN2; for compound titration LC3C (displacement curve, FP signal): two replicate columns per compound
[2] = system: U2OS cells; experiment: Cell growth assay (IncuCyte confluence over 72 h); type: cell-based; set-up: key to U2OS cell growth: % of well area covered by cells (confluence)
Method: Cell growth assay: Cell confluence (phase) from RPE1 (hTERT RPE-1, ATCC CLR_4000) or U2OS (ATCC, HTB-96) cell lines were monitored over time with the IncuCyte S3 (Sartiorius, Germany) in 384-well plates in 50 ul DMEM media, supplemented with 10% Fetal Bovine Serum (FBS) 1% penicillin/Streptomycin and incubated 24 h before treatment. Experiment was performed as described in Cano-Franco et al.. […] Cell confluence is represented as % of area covered by cells. Each data point represents the average ratio or confluence obtained from three individual wells of the plate.

[3] = target: GABARAP (Homo sapiens, UniProt O95166); experiment: FP assay with Cy5-labelled p62 LIR tracer (protein titration and tracer displacement); type: binding; settings: GABARAP; log10 concentration [M] -3.82391; listed as AN2
[4] = log10 concentration [M] -3.82391
[5] = log10 concentration [M] -4.1549
[6] = log10 concentration [M] -4.60206
[7] = log10 concentration [M] -5.30103
[8] = log10 concentration [M] -5.69897
[9] = log10 concentration [M] -6.22185
[10] = log10 concentration [M] -6.69897
[11] = log10 concentration [M] -7.30103
[12] = log10 concentration [M] -7.79588
[13] = log10 concentration [M] -8.08092

LC3C, sequence (Q9BXW4 1-126): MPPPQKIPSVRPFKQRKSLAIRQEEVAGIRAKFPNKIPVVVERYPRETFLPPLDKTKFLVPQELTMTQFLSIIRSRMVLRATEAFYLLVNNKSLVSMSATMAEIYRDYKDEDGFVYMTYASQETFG
GABARAP, sequence (O95166 1-116): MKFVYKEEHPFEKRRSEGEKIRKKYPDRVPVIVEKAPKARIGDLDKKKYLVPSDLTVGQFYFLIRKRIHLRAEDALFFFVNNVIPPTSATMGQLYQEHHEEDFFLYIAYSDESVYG

O=c1cc(-c2ccccc2)c2c(O)cc(O)cc2o1 [compound 2]
normalized FP signal, p62 LIR tracer displacement [1, 4]: 84.2 and 87
normalized FP signal, p62 LIR tracer displacement [1, 5]: 90.8 and 97
normalized FP signal, p62 LIR tracer displacement [1, 6]: 92.6 and 96.6
normalized FP signal, p62 LIR tracer displacement ([1]; log10 concentration [M] -5): 91.6 and 99.8
normalized FP signal, p62 LIR tracer displacement [1, 7]: 95.6 and 98.4
normalized FP signal, p62 LIR tracer displacement [1, 8]: 90.8 and 90.6
normalized FP signal, p62 LIR tracer displacement [1, 9]: 97.2 and 95.2
normalized FP signal, p62 LIR tracer displacement [1, 10]: 99.8 and 97.8
normalized FP signal, p62 LIR tracer displacement [1, 11]: 98 and 96.2
normalized FP signal, p62 LIR tracer displacement [1, 12]: 91.6 and 93.8
normalized FP signal, p62 LIR tracer displacement [1, 13]: 99 and 100.4
compound titration LC3C (displacement curve, FP signal) [1, 4]: 84.2 and 87
compound titration LC3C (displacement curve, FP signal) [1, 5]: 90.8 and 97
compound titration LC3C (displacement curve, FP signal) [1, 6]: 92.6 and 96.6
compound titration LC3C (displacement curve, FP signal) ([1]; log10 concentration [M] -5): 91.6 and 99.8
compound titration LC3C (displacement curve, FP signal) [1, 7]: 95.6 and 98.4
compound titration LC3C (displacement curve, FP signal) [1, 8]: 90.8 and 90.6
compound titration LC3C (displacement curve, FP signal) [1, 9]: 97.2 and 95.2
compound titration LC3C (displacement curve, FP signal) [1, 10]: 99.8 and 97.8
compound titration LC3C (displacement curve, FP signal) [1, 11]: 98 and 96.2
compound titration LC3C (displacement curve, FP signal) [1, 12]: 91.6 and 93.8
compound titration LC3C (displacement curve, FP signal) [1, 13]: 99 and 100.4
U2OS cell growth ([2]; 100 nM, time 0 h, listed as AN2): 19.1869 and 23.0588 and 16.4621
U2OS cell growth ([2]; 100 nM, time 2 h, listed as AN2): 26.3735 and 32.6169 and 19.3997
U2OS cell growth ([2]; 100 nM, time 4 h, listed as AN2): 24.7952 and 30.3994 and 22.748
U2OS cell growth ([2]; 100 nM, time 6 h, listed as AN2): 35.0609 and 34.7921 and 28.0047
U2OS cell growth ([2]; 500 nM, time 0 h, listed as AN2): 31.1146 and 31.1409 and 25.529
U2OS cell growth ([2]; 500 nM, time 2 h, listed as AN2): 37.2793 and 37.1141 and 29.374
U2OS cell growth ([2]; 500 nM, time 4 h, listed as AN2): 35.0603 and 34.3575 and 27.3746
U2OS cell growth ([2]; 500 nM, time 6 h, listed as AN2): 41.7549 and 43.2861 and 37.4758
U2OS cell growth ([2]; 500 nM, time 10 h): 32.7403
U2OS cell growth ([2]; 1 uM, time 0 h, listed as AN2): 36.01 and 37.7334 and 44.0066
U2OS cell growth ([2]; 1 uM, time 2 h, listed as AN2): 41.2565 and 41.9214 and 49.8222
U2OS cell growth ([2]; 1 uM, time 4 h, listed as AN2): 42.1175 and 41.7454 and 46.9501
U2OS cell growth ([2]; 1 uM, time 6 h, listed as AN2): 43.4595 and 43.9324 and 52.0735
U2OS cell growth ([2]; 1 uM, time 8 h, listed as AN2): 40.5517 and 44.5898 and 47.4794
U2OS cell growth ([2]; 1 uM, time 10 h, listed as AN2): 50.4894 and 50.7087 and 57.5735
U2OS cell growth ([2]; 1 uM, time 12 h, listed as AN2): 52.169
U2OS cell growth ([2]; 3 uM, time 0 h, listed as AN2): 52.9397 and 44.5639 and 41.1773
U2OS cell growth ([2]; 3 uM, time 2 h, listed as AN2): 56.1844 and 48.7409 and 42.4981
U2OS cell growth ([2]; 3 uM, time 4 h, listed as AN2): 62.7365 and 55.2773 and 40.1715
U2OS cell growth ([2]; 3 uM, time 6 h, listed as AN2): 59.0724 and 50.9181 and 40.9833
U2OS cell growth ([2]; 3 uM, time 8 h, listed as AN2): 54.8708 and 50.2365 and 43.1088
U2OS cell growth ([2]; 3 uM, time 10 h, listed as AN2): 58.4454 and 57.5785 and 49.1427
U2OS cell growth ([2]; 3 uM, time 12 h, listed as AN2): 58.133 and 56.9126
U2OS cell growth ([2]; 5 uM, time 0 h, listed as AN2): 43.5311 and 39.437 and 42.1256
U2OS cell growth ([2]; 5 uM, time 2 h, listed as AN2): 49.0024 and 44.0014 and 45.1119
U2OS cell growth ([2]; 5 uM, time 4 h, listed as AN2): 52.676 and 42.1033 and 45.9331
U2OS cell growth ([2]; 5 uM, time 6 h, listed as AN2): 55.9501 and 52.2867 and 48.2418
U2OS cell growth ([2]; 5 uM, time 8 h, listed as AN2): 48.351 and 54.4267 and 50.4706
U2OS cell growth ([2]; 5 uM, time 10 h, listed as AN2): 60.2478 and 59.3897 and 54.3527
U2OS cell growth ([2]; 10 uM, time 0 h, listed as AN2): 38.4245 and 29.6214 and 35.113
U2OS cell growth ([2]; 10 uM, time 2 h, listed as AN2): 42.0042 and 29.7485 and 38.264
U2OS cell growth ([2]; 10 uM, time 4 h, listed as AN2): 45.9814 and 34.6443 and 44.264
U2OS cell growth ([2]; 10 uM, time 6 h, listed as AN2): 49.3993 and 33.9992 and 45.6677
U2OS cell growth ([2]; 10 uM, time 8 h, listed as AN2): 46.5429 and 32.9506 and 41.2472
U2OS cell growth ([2]; 10 uM, time 10 h, listed as AN2): 49.5589 and 37.0749 and 46.636
normalized FP signal, p62 LIR tracer displacement [3]: 92.5862 and 91.2069

— PMC11589570, “Critical assessment of LC3/GABARAP ligands used for degrader development and ligandability of LC3/GABARAP binding pockets” (Nature Communications, 2024)
